Assay results from patent EP0233841A1, “Quinone derivatives and process for their preparation” (Arai, Tadashi, Prof., priority 1986, dated 1987).
In brackets after ≈: the same amount, converted by molar mass.

System: Leukämie-Zellinie L1210
Assay: in vitro cytotoxicity test, growth inhibition of cultured leukaemia cell line L1210
Format: cell-based, Mäuse
Settings: Mus musculus, 72 h; L1210 cells, 3-day incubation, cell count, by interpolation; read-out: ID₅₀ (50 % Hemmwirkdosis)
Experimental: Die Saframycin-Derivate der vorliegenden Erfindungen zeigen insbesondere in vitro Zytotoxizität gegenüber Zellkulturen von Mäuse-Leukämie-Zellen L 1210 (NCI). Für die geprüften Verbindungen werden ID₅₀-Werte im Bereich von 0,1 bis 0,001 µg/ml gefunden.
Die Wirksamkeit gegen Tumoren in vitro wird mit einer kultivierten Leukämie-Zellinie L1210 (K. Kishi et al., J. Antibiot. 37, 847 (1984)) bestimmt. Die Zellen werden in Eagle's minimum essential medium (Nissui Seiyaku Co. Ltd., Tokyo) enthaltend 10 % fötales Kälberserum (Gibco Laboratories) in Suspension-Kultur gehalten. Die Zellen werden bei einer Konzentration von 3x10⁴ Zellen/ml in 24-Loch-Mikrotiterplatten (Costar) suspendiert und bei 37° in einer feuchten Atmosphäre enthaltend 5 % CO₂ in Luft 24 Stunden lang kultiviert, um exponentielles Wachstum auszulösen. Diese Kulturen werden mit einer Reihe von jeweils um den Faktor 10 verdünnten Proben Saframycin-Derivaten dieser Erfindung versetzt. Die Konzentration der Zellen wird nach 3-tägiger Inkubation durch elektrische Zählung mit einem Sysmex CC-130 Mikro-Zellzählgerät (Toa Electronics Ltd., Tokyo) bestimmt. Die Wachstumshemmung (Inhibierung I) in Prozent wird für jede Dosismenge nach der Formel I=(C3-T3)/(C3-C0)x100, worin T3 die Zellkonzentration in den Vertiefungen der Mikrotiterplatte bei einer gegebenen Verdünnung des Wirkstoffs nach 3-tägiger Inkubation, C3 die Zellkonzentration in der entsprechenden Kontroll-Inkubation und C0 die Zellkonzentration in den Vertiefungen vor der 3-tägigen Inkubation bedeuten, berechnet. ID₅₀ (50 % Hemmwirkdosis) wird durch Interpolierung bestimmt.

Row | Compound | IC50
1 | COC1=C(C)C(=O)C2=C(C1=O)C1C3CC4=C(C(=O)C(OC)=C(C)C4=O)C(CNC(=O)[C@H](C)NC(=O)Nc4ccccc4)N3C(C#N)C(C2)N1C (stereo partly drawn) [N-Phenylcarbamoyl-Saframycin Y₃] | 0.04 µg/mL (≈ 0.0586 µM)
2 | COC1=C(C)C(=O)C2=C(C1=O)C1C3CC4=C(C(=O)C(OC)=C(C)C4=O)C(CNC(=O)[C@H](C)NC(C)C)N3C(C#N)C(C2)N1C (stereo partly drawn) [N-Isopropyl-Saframycin Y₃] | 0.0018 µg/mL (≈ 0.00297 µM)
3 | CCCN(CCC)[C@@H](C)C(=O)NCC1C2=C(CC3C4C5=C(CC(C(C#N)N13)N4C)C(=O)C(C)=C(OC)C5=O)C(=O)C(C)=C(OC)C2=O (stereo partly drawn) [N,N-Dipropyl-Saframycin Y₃, N,N-Di-n-propyl-Saframycin Y₃] | 0.0015 µg/mL (≈ 0.00232 µM)
4 | CCCCN(CCCC)[C@@H](C)C(=O)NCC1C2=C(CC3C4C5=C(CC(C(C#N)N13)N4C)C(=O)C(C)=C(OC)C5=O)C(=O)C(C)=C(OC)C2=O (stereo partly drawn) [N,N-Dibutyl-Saframycin Y₃, N,N-Di-n-butyl-Saframycin Y₃] | 0.08 µg/mL (≈ 0.118 µM)
5 | COC1=C(C)C(=O)C2=C(C1=O)C1C3CC4=C(C(=O)C(OC)=C(C)C4=O)C(CNC(=O)[C@H](C)NC(=O)Nc4cccc5ccccc45)N3C(C#N)C(C2)N1C (stereo partly drawn) [N-α-Naphthylcarbamoyl-Saframycin Y₃] | 0.08 µg/mL (≈ 0.109 µM)
6 | COC1=C(C)C(=O)C2=C(C1=O)C1C3CC4=C(C(=O)C(OC)=C(C)C4=O)C(CNC(=O)[C@H](C)NC(=S)Nc4ccccc4)N3C(C#N)C(C2)N1C (stereo partly drawn) [N-Phenylthiocarbamoyl-Saframycin Y₃] | 0.1 µg/mL (≈ 0.143 µM)
7 | COC1=C(C)C(=O)C2=C(C1=O)C1C3CC4=C(C(=O)C(OC)=C(C)C4=O)C(CNC(=O)[C@H](C)NC(=O)C(C)(C)C)N3C(C#N)C(C2)N1C (stereo partly drawn) [N-Pivaloyl-Saframycin Y₃] | 0.01 µg/mL (≈ 0.0154 µM)
8 | CCCCCCCCCC(=O)N[C@@H](C)C(=O)NCC1C2=C(CC3C4C5=C(CC(C(C#N)N13)N4C)C(=O)C(C)=C(OC)C5=O)C(=O)C(C)=C(OC)C2=O (stereo partly drawn) [N-n-Decanoyl-Saframycin Y₃] | 0.11 µg/mL (≈ 0.153 µM)
9 | COC1=C(C)C(=O)C2=C(C1=O)C1C3CC4=C(C(=O)C(OC)=C(C)C4=O)C(CNC(=O)[C@H](C)NCc4ccc([N+](=O)[O-])cc4)N3C(C#N)C(C2)N1C (stereo partly drawn) [N-p-Nitrobenzyl-Saframycin Y₃] | 0.0015 µg/mL (≈ 0.00215 µM)
10 | CCN(CC)[C@@H](C)C(=O)NCC1C2=C(CC3C4C5=C(CC(C(C#N)N13)N4C)C(=O)C(C)=C(OC)C5=O)C(=O)C(C)=C(OC)C2=O (stereo partly drawn) [N,N-Diäthyl-Saframycin Y₃] | 0.0035 µg/mL (≈ 0.00565 µM)
11 | CCCCCC(=O)N[C@@H](C)C(=O)NCC1C2=C(CC3C4C5=C(CC(C(C#N)N13)N4C)C(=O)C(C)=C(OC)C5=O)C(=O)C(C)=C(OC)C2=O (stereo partly drawn) [N-n-Hexanoyl-Saframycin Y₃] | 0.0075 µg/mL (≈ 0.0113 µM)
12 | COC1=C(C)C(=O)C2=C(C1=O)C1C3CC4=C(C(=O)C(OC)=C(C)C4=O)C(CNC(=O)[C@H](C)NC(=O)c4ccc(Br)cc4)N3C(C#N)C(C2)N1C (stereo partly drawn) [N-p-Brombenzyol-Saframycin Y₃, N-p-Brombenzoyl-Saframycin Y₃] | 0.01 µg/mL (≈ 0.0134 µM)
13 | CCC(=O)N[C@@H](C)C(=O)NCC1C2=C(CC3C4C5=C(CC(C(C#N)N13)N4C)C(=O)C(C)=C(OC)C5=O)C(=O)C(C)=C(OC)C2=O (stereo partly drawn) [N-Propionyl-Saframycin Y₃] | 0.02 µg/mL (≈ 0.0323 µM)
14 | CCCCCCCC(=O)N[C@@H](C)C(=O)NCC1C2=C(CC3C4C5=C(CC(C(C#N)N13)N4C)C(=O)C(C)=C(OC)C5=O)C(=O)C(C)=C(OC)C2=O (stereo partly drawn) [N-n-Octanoyl-Saframycin Y₃] | 0.11 µg/mL (≈ 0.159 µM)
15 | CCCCCCCCCCCCCCCC(=O)N[C@@H](C)C(=O)NCC1C2=C(CC3C4C5=C(CC(C(C#N)N13)N4C)C(=O)C(C)=C(OC)C5=O)C(=O)C(C)=C(OC)C2=O (stereo partly drawn) [N-n-Hexadecanoyl-Saframycin Y₃] | 0.03 µg/mL (≈ 0.0374 µM)
